Data as given in patent US20260250278A1, “PHENYL-SUBSTITUTED DIHYDRONAPHTHYRIDINE COMPOUNDS, AND PREPARATION AND USE THEREOF” (SUZHONG PHARMACEUTICAL GROUP CO., LTD., priority 2022, published 2026).

Columns and labels:
[1] = Pharmacokinetic test of mice (intravenous administration); assay type: in vivo; conditions: mouse, plasma; CD1 mice, intravenous 1 mg/kg
Method: This experiment was intended to evaluate a pharmacokinetic behavior of a compound after intravenous injection or intragastric administration in the mice. Intravenous injection administration: a test compound was prepared into 0.2 mg/mL clear solution, a solvent was 10% ethanol/40% polyethylene glycol 400/50% ultrapure water, and after administration, plasma was collected 0.083 hour, 0.25 hour, 0.5 hour, 1 hour, 2 hours, 4 hours, 8 hours, 24 hours and 48 hours later.
(§1) A concentration of the test compound in the plasma was determined by high-performance liquid chromatography-tandem mass spectrometry (LC-MS/MS). Retention time, chromatogram collection and chromatogram integration of compounds and internal standards were treated by software Analyst (Applied Biosystems), and data statistics was treated by software Analyst (Applied Biosystems).
(§2) A plasma concentration was treated by a non-atrioventricular model of Winnonlin™ Version 6.1 (Pharsight, Mountain View, CA) pharmacokinetic software, and pharmacokinetic parameters were calculated by a linear logarithmic trapezoid method.

[2] = Pharmacokinetic test of rats (intravenous and intragastric administration); assay type: in vivo; conditions: SD rats
Method: This experiment was intended to evaluate a pharmacokinetic behavior of an implementing compound after intravenous injection or intragastric administration in the rats. Intravenous injection administration: a test compound was prepared into 0.2 mg/mL clear solution, a solvent was 10% ethanol, 40% polyethylene glycol 400 and 50% water, and after administration, plasma was collected 0.083 hour, 0.25 hour, 0.5 hour, 1 hour, 2 hours, 4 hours, 8 hours and 24 hours later. Intragastric administration: a test compound was prepared into 1 mg/mL clear solution, a solvent was 10% ethanol/40% polyethylene glycol 400/50% water, and after administration, plasma was collected 0.25 hour, 0.5 hour, 1 hour, 2 hours, 4 hours, 8 hours and 24 hours later.
as §1, §2
Pharmacokinetic parameters of the compounds in the rats with an intravenous injection dose of 1 mg/kg and an intragastric and oral dose of 5 mg/kg were as shown in Table 20 below.

CYP3A4 = CYP3A4 (Homo sapiens, UniProt P08684); experiment: biochemical; assay type: in vitro ADME
[3] = rat, plasma, intragastric and oral administration 5 mg/kg
[4] = rat, plasma, intravenous 1 mg/kg

Chain of CYP3A4 (P08684 2-503 limits assumed): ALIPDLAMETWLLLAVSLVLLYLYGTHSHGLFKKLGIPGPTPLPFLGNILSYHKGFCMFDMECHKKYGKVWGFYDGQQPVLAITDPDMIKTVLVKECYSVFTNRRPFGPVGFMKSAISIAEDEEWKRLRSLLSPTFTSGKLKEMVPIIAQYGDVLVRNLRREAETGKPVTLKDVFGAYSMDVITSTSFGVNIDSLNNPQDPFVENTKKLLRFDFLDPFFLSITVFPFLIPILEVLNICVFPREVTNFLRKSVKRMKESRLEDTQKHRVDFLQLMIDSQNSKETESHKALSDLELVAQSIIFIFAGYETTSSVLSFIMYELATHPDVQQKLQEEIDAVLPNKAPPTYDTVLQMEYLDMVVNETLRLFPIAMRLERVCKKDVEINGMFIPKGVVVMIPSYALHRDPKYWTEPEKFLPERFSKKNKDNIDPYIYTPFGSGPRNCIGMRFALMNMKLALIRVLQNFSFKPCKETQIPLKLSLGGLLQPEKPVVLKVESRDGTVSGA

| AUC(0-t) [1] [µg·h/mL] | F ([2]; intragastric and oral administration 5 mg/kg) [%] | AUC(0-t) [2, 3] [µg·h/mL] | Cmax [2, 3] [ng/mL] | AUC(0-t) [2, 4] [µg·h/mL] | clearance [2, 4] [mL/min/kg] | half-life [2, 4] [h] | IC50 (CYP3A4; CYP3A4-5M IC50, human CYP3A4, CYP3A4-5M) [µM] | IC50 (CYP3A4; CYP3A4-5T IC50, human CYP3A4, CYP3A4-5T) [µM] | SMILES |
| --- | --- | --- | --- | --- | --- | --- | --- | --- | --- |
| 2.55 | – | – | – | – | – | – | – | – | CCOc1nc2ccsc2c2c1[C@H](c1ccc(C#N)cc1OC)C(C(N)=O)=C(C)N2 [Example 38, (S)-6-(4-cyano-2-methoxyphenyl)-5-ethoxy-8-methyl-6,9-dihydrothieno[3,2-h][1,6]naphthyridine-7-formamide] |
| 142 | 60.3 | 307 | 23800 | 91.2 | 0.34 | 9.62 | 9.98 | 8.02 | CCOc1ncc(C)c2c1[C@H](c1ccc(C#N)cc1OC)C(C(N)=O)=C(C)N2 [Finerenone, reference compound] |
